# Measurements taken from paper PMC10058827, “A New Way to 2,3,4-Trisubstituted Benzo[h]quinolines: Synthesis, Consecutive Reactions and Cellular Activities” (Molecules, 2023).
# Read-outs that look alike come from different tables or passages of the source.
# Experiments:
# Format in all cases: cell-based
# [1] = tested on: Staphylococcus aureus MRSA (DSM 11822); assay: Antibacterial growth inhibition screen, residual growth in % (OD600); conditions: for activity at 5 µM: Staphylococcus aureus, strain DSM 11822, compound concentration 5 µM, 18 h at 37 °C; for activity against MRSA (in words): growth inhibition assay
# Description: (§1) Overnight cultures of the bacteria were grown aerobically at 37 °C in Müller–Hinton broth with added 1% glucose and a pH of 7.2 for Gram-negative strains, or with a Trypticase soy yeast extract medium (TSY—30 g/L Trypticase soy broth, 3 g/L yeast extract, pH 7.2) for Gram-positive strains. […] A total of 25 μL of test culture was added to 25 μL of a serial dilution of the test compounds in the appropriate medium for the different strains in accordance with standardized procedures in 384-well plates. For screening purposes, the residual absorbance in % was tested at the compound concentrations of 5 and 50 µM. For the selected compounds, the concentration-dependent growth inhibition curves were recorded from the stock solutions in DMSO at the final concentrations of 100, 50, 25, 12.5, 6,25, 3.125, 1.56, 0.78, 0.39, and 0.2 µM. As the positive control compounds, Linezolid (both MRSA strains) Ciprofloxacin (E. faecium, E. coli), and Amikacin (P. aeruginosa) were applied. The highest DMSO concentration in the assay was 1%, which had no apparent effect on the growth of the bacteria. After an incubation time of 18 h at 37 °C under moist conditions, the optical density at 600 nm was measured with a Fusion Universal Microplate Analyzer (Perkin–Elmer, Waltham, MA, USA). […] The following bacterial strains were used: Gram-negative: Escherichia coli (DSM 1116) and Pseudomonas aeruginosa PA7 (DSM 24068), and Gram-positive: Staphylococcus aureus MRSA (clinical isolate, RKI 11-02670) and Staphylococcus aureus MRSA (DSM 11822). The MIC values were determined by curve fitting with Sigma Plot.
# [2] = tested on: human breast cancer cell line MCF-7; assay: Antiproliferative WST-1 assay; conditions: WST-1, 5 days
# Description: (§2) In addition to probing effects on bacterial pathogens, the compounds’ ability to interfere with the proliferation and/or viability of four mammalian cell lines was assessed by quantifying their mitochondrial dehydrogenase activity in a colorimetric assay with the tetrazolium dye WST-1.
# (§3) The effects of the compounds on cell viability were probed with a WST-1 test using the procedure of Ishiyama et al. as modified by Sasse et al.. […] Briefly, the subconfluent cells were washed with Earle’s Balanced Salt Solution (Gibco) without Ca and Mg ions, trypsinized, and re-suspended in Dulbecco’s modified eagle’s medium that contained 5% fetal bovine serum (FBS; L929, KB-3-1, FS4-LTM) or Roswell Park Memorial Institute medium that contained 5% FBS, 0.5% Minimum Essential Medium Non-Essential Amino Acids, Gibco (MEM NEAA), 0.5% GlutaMAX (Gibco), and insulin at 5 μg/mL (MCF-7). […] The blank and solvent controls were incubated under identical conditions. After an incubation period of 5 days (for L929, KB-3-1, and MCF-7) or 24 h (for FS4-LTM), 3 μL of WST-1 (ready-to-use solution by Roche) was added. The incubation time of the plates at 37 °C varied between the cell lines from 20 min for KB-3-1, 30 min for L929, 1 h for FS4-LTM, to 2 h for MCF-7, before measuring absorbance at 450 nm (reference 600 nm) with an Infinite 200 PRO plate reader (Tecan, Männedorf, Switzerland). As the positive control compounds, Auranofin and Staurosporin were applied. The absorbance of the solvent control was set to 100%. The EC50 values were determined with Sigma Plot.
# [3] = tested on: conditional immortalized human fibroblast cell line FS4-LTM; assay: Antiproliferative WST-1 assay; conditions: WST-1, 24 h
# Description: as §3, with “In addition to probing effects on bacterial pathogens, the compounds’ ability to interfere with the proliferation and/or viability of four mammalian cell lines was assessed by quantifying their mitochondrial dehydrogenase activity in a colorimetric assay with the tetrazolium dye WST-1. […] The effects” for “The effects”
# [4] = tested on: human cervical carcinoma cell line KB-3-1; assay: Antiproliferative WST-1 assay; conditions: WST-1, 5 days
# Description: as §3, with “In addition to probing effects on bacterial pathogens, the compounds’ ability to interfere with the proliferation and/or viability of four mammalian cell lines was assessed by quantifying their mitochondrial dehydrogenase activity in a colorimetric assay with the tetrazolium dye WST-1. […] The effects” for “The effects”
# [5] = tested on: mouse fibroblast cell line L929; assay: Antiproliferative WST-1 assay; conditions: WST-1, 5 days
# Description: as §3, with “In addition to probing effects on bacterial pathogens, the compounds’ ability to interfere with the proliferation and/or viability of four mammalian cell lines was assessed by quantifying their mitochondrial dehydrogenase activity in a colorimetric assay with the tetrazolium dye WST-1. […] The effects” for “The effects”
# [6] = tested on: Staphylococcus aureus MRSA (clinical isolate, RKI 11-02670); assay: Antibacterial MIC determination, concentration-dependent growth inhibition
# Description: as §1
# [7] = tested on: four mammalian cell lines (L929, KB-3-1, MCF-7, FS4-LTM); assay: Antiproliferative WST-1 assay, range over all four cell lines; conditions: 5 days (L929, KB-3-1, MCF-7) or 24 h (FS4-LTM)
# Description: as §2
# The effects of the compounds on cell viability were probed with a WST-1 test using the procedure of Ishiyama et al. as modified by Sasse et al.. […] Briefly, the subconfluent cells were washed with Earle’s Balanced Salt Solution (Gibco) without Ca and Mg ions, trypsinized, and re-suspended in Dulbecco’s modified eagle’s medium that contained 5% fetal bovine serum (FBS; L929, KB-3-1, FS4-LTM) or Roswell Park Memorial Institute medium that contained 5% FBS, 0.5% Minimum Essential Medium Non-Essential Amino Acids, Gibco (MEM NEAA), 0.5% GlutaMAX (Gibco), and insulin at 5 μg/mL (MCF-7). […] After an incubation period of 5 days (for L929, KB-3-1, and MCF-7) or 24 h (for FS4-LTM), 3 μL of WST-1 (ready-to-use solution by Roche) was added. The incubation time of the plates at 37 °C varied between the cell lines from 20 min for KB-3-1, 30 min for L929, 1 h for FS4-LTM, to 2 h for MCF-7, before measuring absorbance at 450 nm (reference 600 nm) with an Infinite 200 PRO plate reader (Tecan, Männedorf, Switzerland). […] The absorbance of the solvent control was set to 100%. The EC50 values were determined with Sigma Plot.
# [8] = strain RKI 11-02670, 18 h at 37 °C, read-out: MRSA MIC
# [9] = strain RKI 11-02670, converted from µM, read-out: MRSA MIC (µg/mL values in brackets)
SMILES,activity at 5 µM [1] [%],"EC50 ([2]; Homo sapiens, MCF7, 120 h) [µM]","EC50 ([3]; Homo sapiens, FS4-LTM) [µM]","EC50 ([4]; Homo sapiens, KB 3-1, 120 h) [µM]","EC50 ([5]; Mus musculus, L929, 120 h) [µM]",activity against MRSA (in words) [1],other results
"O=[N+]([O-])/C(C(Cl)=C(Cl)Cl)=C(\Nc1cccc2ccccc12)n1cccn1 [Compound 17c, (E)-N-(3,4,4-Trichloro-2-nitro-1-(1H-pyrazol-1-yl)buta-1,3-dien-1-yl)naphthalen-1-amine]",101,,,,,,
"CN[C@@H]1C[C@H]2O[C@@](C)([C@@H]1OC)n1c3ccccc3c3c4c(c5c6ccccc6n2c5c31)C(=O)NC4 [Staurosporine, reference compound]",,< 0.14,,,,,
"O=[N+]([O-])c1c(N2CCOCC2)nc2c(ccc3ccccc32)c1C(Cl)Cl [Compound 11b, 4-(4-(Dichloromethyl)-3-nitrobenzo[h]quinolin-2-yl)morpholine]",123,50,> 50,10,27,inactive,
"O=[N+]([O-])c1c(-n2cccn2)nc2c(ccc3ccccc32)c1C(Cl)Cl [Compound 18c, 4-(Dichloromethyl)-3-nitro-2-(1H-pyrazol-1-yl)benzo[h]quinoline]",110,,,,,,
"O=[N+]([O-])c1c(Sc2ccc(F)cc2)nc2c(ccc3ccccc32)c1C(Cl)Cl [Compound 10d, 4-(Dichloromethyl)-2-((4-fluorophenyl)thio)-3-nitrobenzo[h]quinoline]",98.4,> 50,> 50,< 0.1,> 50,complete loss of activity,
"O=[N+]([O-])/C(C(Cl)=C(Cl)Cl)=C(\Nc1cccc2ccccc12)n1nnc2ccccc21 [Compound 17a, (E)-N-(1-(1H-Benzo[d][1,2,3]triazol-1-yl)-3,4,4-trichloro-2-nitrobuta-1,3-dien-1-yl)naphthalen-1-amine]",120,,,,,,
"O=C(O)CSc1nc2c(ccc3ccccc32)c(C(Cl)Cl)c1[N+](=O)[O-] [Compound 13, 2-((4-(Dichloromethyl)-3-nitrobenzo[h]quinolin-2-yl)thio)acetic acid]",1,17,15.7,6.9,45,high activity,"MIC [6, 8]: 8.4 µM; MIC [6, 9]: 3.3 µg/mL; EC50 [7]: 6.9 to 45 µM"
"O=[N+]([O-])c1c(N2CCCCC2)nc2c(ccc3ccccc32)c1C(Cl)Cl [Compound 11a, 4-(Dichloromethyl)-3-nitro-2-(piperidin-1-yl)benzo[h]quinoline]",95.6,19,> 50,> 50,> 50,inactive,
"CC(=O)NC[C@H]1CN(c2ccc(N3CCOCC3)c(F)c2)C(=O)O1 [Linezolid, reference compound]",1,,,,,,"MIC [6, 8]: 0.4 µM"
"CCOC(=O)C[S+]([O-])c1nc2c(ccc3ccccc32)c(C(Cl)Cl)c1[N+](=O)[O-] (centres unmarked) [Compound 8, Ethyl 2-((4-(dichloromethyl)-3-nitrobenzo[h]quinolin-2-yl)sulfinyl)acetate]",1,3.5,3.4,3.8,2.5,,"MIC [6, 8]: 17.5 µM; MIC [6, 9]: 7.7 µg/mL; EC50 [7]: 2.5 to 3.8 µM"
"O=[N+]([O-])c1c(-n2nnc3ccccc32)nc2c(ccc3ccccc32)c1C(Cl)Cl [Compound 18a, 2-(1H-Benzo[d][1,2,3]triazol-1-yl)-4-(dichloromethyl)-3-nitrobenzo[h]quinoline]",95.1,,,,,,
"O=[N+]([O-])C(C(Cl)=C(Cl)Cl)=C(n1cccn1)n1cccn1 [Compound 16c, 1,1’-(3,4,4-Trichloro-2-nitrobuta-1,3-diene-1,1-diyl)bis(1H-pyrazole)]",126,,,,,no activity,
"CCOC(=O)CSc1nc2c(ccc3cc4ccccc4cc32)c(C(Cl)Cl)c1[N+](=O)[O-] [Compound 6, Ethyl 2-((4-(dichloromethyl)-3-nitronaphtho[2,3-h]quinolin-2-yl)thio)acetate]",112,,,,,inactive,
"O=[N+]([O-])/C(C(Cl)=C(Cl)Cl)=C(\Nc1cccc2ccccc12)n1cncn1 [Compound 17b, (E)-N-(3,4,4-Trichloro-2-nitro-1-(1H-1,2,4-triazol-1-yl)buta-1,3-dien-1-yl)naphthalen-1-amine]",112,,,,,,
"O=[N+]([O-])c1c([S+]([O-])c2ccc(F)cc2)nc2c(ccc3ccccc32)c1C(Cl)Cl (centres unmarked) [Compound 12, 4-(Dichloromethyl)-2-((4-fluorophenyl)sulfinyl)-3-nitrobenzo[h]quinoline]",2,> 50,4.4,3.1,3.3,,"MIC [6, 8]: 1.2 µM; MIC [6, 9]: 0.5 µg/mL"
"O=[N+]([O-])c1c(-n2cncn2)nc2c(ccc3ccccc32)c1C(Cl)Cl [Compound 18b, 4-(Dichloromethyl)-3-nitro-2-(1H-1,2,4-triazol-1-yl)benzo[h]quinoline]",107,,,,,,
"CC(=O)OC[C@H]1O[C@@H]([S-])[C@H](OC(C)=O)[C@@H](OC(C)=O)[C@@H]1OC(C)=O.CCP(CC)CC.[Au+] [Auranofin, reference compound]",,,,,,,EC50 [2]: 3.5 µM; EC50 [3]: 1.3 µM; EC50 [4]: 0.6 µM; EC50 [5]: 0.4 µM
